We go through 3 molecules from patent US20260201008A1, “SECRETIN-DERIVED GLP1R SELECTIVE AGONISTS” (GUBRA A/S, priority 2023, published 2026).

Series [1] is described as follows: Fibril formation of crude library peptides (Thioflavin T). In kind it is physicochemical. More on the design: key: average ThT fluorescence emission at 480 nm (ex 450 nm), raw units. The settings on record: Physical stability of peptides. An outline of the steps: (§1)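 Crude peptides at 267 μM in 50 mM sodium acetate pH 4.0 or 50 mM sodium phosphate pH 7.0, pre-incubated 1-2 h at room temperature, then 4 μM final ThT added. Turbidity read first as A600. ThT fluorescence (ex 450/em 480 nm) read every 10 min for 72 h at 40° C, with 5 min shaking before each read; fibril formation = average emission.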

In a further series the target is SCTR (Homo sapiens, UniProt P47872). The series can be described thus: hSCTR potency, cAMP accumulation in CHO-K1 cells stably overexpressing hSCTR. In kind it is cell-based. The settings on record: cAMP accumulation, CHO-K1 cells overexpressing hSCTR; read-out: hSCTR pEC50 (converted). Also noted: alternatively Euroscreen ES-712-AF; FAST-0161L; host or cells: CHO-K1. An outline of the steps: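 Read-out is TR-FRET cAMP detection, recorded one hour after reagent addition, in CHO-K1 cells stably overexpressing hSCTR. Cells in DPBS containing 0.05% casein and 0.5 mM IBMX are exposed to graded peptide doses for 30 min at room temperature, with human secretin as reference agonist.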
Chain of SCTR (P47872 23-440): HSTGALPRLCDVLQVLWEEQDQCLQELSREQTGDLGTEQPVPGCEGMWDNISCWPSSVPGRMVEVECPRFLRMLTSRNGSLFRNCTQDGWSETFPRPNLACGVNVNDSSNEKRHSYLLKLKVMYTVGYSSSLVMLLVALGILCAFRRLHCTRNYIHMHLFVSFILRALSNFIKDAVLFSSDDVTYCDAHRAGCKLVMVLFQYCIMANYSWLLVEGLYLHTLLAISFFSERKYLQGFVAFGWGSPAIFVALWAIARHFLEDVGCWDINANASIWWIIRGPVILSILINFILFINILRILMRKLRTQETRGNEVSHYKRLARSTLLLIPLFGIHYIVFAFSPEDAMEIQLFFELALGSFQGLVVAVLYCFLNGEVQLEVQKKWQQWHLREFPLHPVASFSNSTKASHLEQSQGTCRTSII

Series [2] in a line: Turbidity of crude library peptides (absorbance at 600 nm). In kind it is physicochemical. Particulars: Physical stability of peptides. An outline of the steps:
as §1

In the next series the target is GLP1R (Homo sapiens, UniProt P43220). The series can be described thus: hGLP1R potency, cAMP accumulation in CHO-K1 cells stably overexpressing hGLP1R. In kind it is cell-based. Also noted: host or cells: CHO-K1. The settings on record: for EC50: cAMP accumulation, CHO-K1 cells overexpressing hGLP1R, read-out: hGLP1R pEC50 (converted); for SCTR EC50/GLP1R EC50 ratio: selectivity for hGLP1R over hSCTR, cAMP accumulation in CHO-K1 cells. Summed up:
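Thawed cells go straight into buffer containing 0.5 mM IBMX and 0.05% casein, get graded compound doses for 30 min at room temperature, and are then assayed for accumulated cAMP by time-resolved FRET. Human GLP-1(7-36) serves as positive control; EC50 is derived by nonlinear regression.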
For orientation: cAMP levels reflect the balance of adenylyl cyclase and phosphodiesterase activity.

Numbered stars: 1 amine (or outer) side, 2 acyl side, 3 side chain; on linkers, the order of the positions; unused ones are H or OH. Square brackets hold non-standard residues; d marks the D form. Side chains are listed from the residue outwards. Peptide text beside a SMILES is read from it. * marks the point of attachment. C20 diacid = O=C(O)CCCCCCCCCCCCCCCCCCC(=O)*; γGlu = O=C(O)[C@H](CCC(=O)[*:2])N[*:1]; AEEA = NCCOCCOCC(=O)O; Aib = CC(C)(N)C(=O)O

Chain of GLP1R (P43220 24-463): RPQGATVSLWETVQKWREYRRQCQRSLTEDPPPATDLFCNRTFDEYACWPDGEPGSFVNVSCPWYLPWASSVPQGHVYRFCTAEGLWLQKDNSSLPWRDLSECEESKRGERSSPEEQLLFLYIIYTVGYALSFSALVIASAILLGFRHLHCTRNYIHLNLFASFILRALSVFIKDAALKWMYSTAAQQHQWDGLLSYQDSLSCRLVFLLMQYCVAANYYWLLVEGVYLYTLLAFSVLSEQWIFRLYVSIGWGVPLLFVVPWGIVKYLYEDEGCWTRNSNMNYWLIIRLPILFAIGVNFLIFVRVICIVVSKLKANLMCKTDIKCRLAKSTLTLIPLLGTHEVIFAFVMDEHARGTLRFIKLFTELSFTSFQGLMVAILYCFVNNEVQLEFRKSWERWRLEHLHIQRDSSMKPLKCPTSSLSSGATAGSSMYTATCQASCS

In series [1], `CC[C@H](C)[C@H](NC(=O)[C@H](CO)NC(=O)[C@@H](NC(=O)[C@H](CC(=O)O)NC(=O)[C@H](CO)NC(=O)[C@@H](NC(=O)[C@H](Cc1ccccc1)NC(=O)[C@@H](NC(=O)CNC(=O)[C@H](CCC(=O)O)NC(=O)C(C)(C)NC(=O)[C@@H](N)Cc1c[nH]cn1)[C@@H](C)O)[C@@H](C)O)C(C)C)C(=O)N[C@@H](CC(C)C)C(=O)N[C@@H](CCCCNC(=O)COCCOCCNC(=O)COCCOCCNC(=O)CC[C@H](NC(=O)CCCCCCCCCCCCCCCCCCC(=O)O)C(=O)O)C(=O)N[C@@H](CCC(=O)O)C(=O)N[C@@H](CCC(=O)O)C(=O)N[C@@H](C)C(=O)NC(C)(C)C(=O)N[C@@H](CC(C)C)C(=O)N[C@@H](CCC(N)=O)C(=O)N[C@@H](CCCNC(=N)N)C(=O)N[C@@H](Cc1ccccc1)C(=O)N[C@@H](CC(C)C)C(=O)N[C@@H](CCC(=O)O)C(=O)N[C@@H](Cc1c[nH]cn1)C(=O)N[C@@H](CC(C)C)C(=O)N[C@H](C(N)=O)C(C)C` [compound 172] (H-H[Aib]EGTFTSDVSILK([AEEA-AEEA-γGlu-C20 diacid])EEA[Aib]LQRFLEHLV-NH2) yielded a Fibril formation of 2942. Besides, the EC50 at SCTR was 20 nM; at GLP1R, 0.0158 nM. Further, the “Turbidity (pH 7)” value in series [2] came to 0.08. Besides, the “SCTR EC50/GLP1R EC50 ratio” value on GLP1R is given as 1279.

`CC[C@H](C)[C@H](NC(=O)[C@H](Cc1ccccc1)NC(=O)[C@H](CCCNC(=N)N)NC(=O)[C@H](CCC(N)=O)NC(=O)[C@H](CC(C)C)NC(=O)[C@H](C)NC(=O)[C@H](C)NC(=O)CNC(=O)[C@H](CCC(=O)O)NC(=O)[C@H](CC(C)C)NC(=O)[C@H](CC(C)C)NC(=O)C(C)(C)NC(=O)[C@H](CO)NC(=O)[C@@H]1CCCN1C(=O)[C@H](CC(=O)O)NC(=O)[C@H](CO)NC(=O)[C@@H](NC(=O)[C@H](Cc1ccccc1)NC(=O)[C@@H](NC(=O)CNC(=O)[C@H](CCC(=O)O)NC(=O)C(C)(C)NC(=O)[C@@H](N)Cc1c[nH]cn1)[C@@H](C)O)[C@@H](C)O)C(=O)N[C@@H](CCC(N)=O)C(=O)N[C@@H](Cc1c[nH]c2ccccc12)C(=O)N[C@@H](CC(C)C)C(=O)N[C@H](C(N)=O)C(C)C` [compound 125] (H-H[Aib]EGTFTSDPS[Aib]LLEGAALQRFIQWLV-NH2) yielded a Fibril formation in series [1] of 4675. For the same molecule, at SCTR, the EC50 was 10000 nM. Besides, the “Turbidity (pH 7)” value in series [2] stood at 0.11. At GLP1R, the EC50 was 3.98 nM and the “SCTR EC50/GLP1R EC50 ratio” value amounted to 2342.

For `CC(C)C[C@H](NC(=O)[C@H](Cc1ccccc1)NC(=O)[C@H](CCCNC(=N)N)NC(=O)[C@H](CCC(N)=O)NC(=O)[C@H](CC(C)C)NC(=O)C(C)(C)NC(=O)[C@H](C)NC(=O)[C@H](CCC(=O)O)NC(=O)[C@H](CCC(=O)O)NC(=O)C(C)(C)NC(=O)[C@H](CC(C)C)NC(=O)[C@H](Cc1ccc(O)cc1)NC(=O)[C@H](CO)NC(=O)[C@@H](NC(=O)[C@H](CC(=O)O)NC(=O)[C@H](CO)NC(=O)[C@@H](NC(=O)[C@H](Cc1ccccc1)NC(=O)[C@@H](NC(=O)CNC(=O)[C@H](CCC(=O)O)NC(=O)C(C)(C)NC(=O)[C@@H](N)Cc1c[nH]cn1)[C@@H](C)O)[C@@H](C)O)C(C)C)C(=O)N[C@@H](CCC(=O)O)C(=O)N[C@@H](CCCCNC(=O)COCCOCCNC(=O)COCCOCCNC(=O)CC[C@H](NC(=O)CCCCCCCCCCCCCCCCCCC(=O)O)C(=O)O)C(=O)N[C@@H](CC(C)C)C(=O)N[C@H](C(N)=O)C(C)C` [compound 158] (H-H[Aib]EGTFTSDVSYL[Aib]EEA[Aib]LQRFLEK([AEEA-AEEA-γGlu-C20 diacid])LV-NH2), in series [1], the Fibril formation was 4465. Further, the EC50 at SCTR is 1580 nM. For the same molecule, the “Turbidity (pH 7)” value in series [2] was determined as 0.08. Also, at GLP1R, the EC50 was 0.0398 nM and the “SCTR EC50/GLP1R EC50 ratio” value was 41049.
